This note sets out measurements from ChEMBL document CHEMBL1201862, “PubChem BioAssay data set” (2004).

For orientation: IC50 means the point on the concentration scale where inhibition reaches its midpoint. What is called EC50 is the concentration that produces a half-maximal response. Broadly, the AC50 is the concentration giving half of the maximal activity seen.

SMILES strings stand for the structures. Calls of active or inactive are those of the source.

In experiment [1] the target is T1, Mu-type opioid receptor (Homo sapiens, UniProt P35372). Briefly: SAR Analysis of Antagonists of the MOR Receptor using an Image-Based Assay - Set 2. [Related pubchem assays (depositor defined):AID1777, AID1785, AID1786, AID1966, AID2133, AID2136, AID2284, AID2285, AID2420]. The class given is functional.
T1 sequence (P35372 whole entry): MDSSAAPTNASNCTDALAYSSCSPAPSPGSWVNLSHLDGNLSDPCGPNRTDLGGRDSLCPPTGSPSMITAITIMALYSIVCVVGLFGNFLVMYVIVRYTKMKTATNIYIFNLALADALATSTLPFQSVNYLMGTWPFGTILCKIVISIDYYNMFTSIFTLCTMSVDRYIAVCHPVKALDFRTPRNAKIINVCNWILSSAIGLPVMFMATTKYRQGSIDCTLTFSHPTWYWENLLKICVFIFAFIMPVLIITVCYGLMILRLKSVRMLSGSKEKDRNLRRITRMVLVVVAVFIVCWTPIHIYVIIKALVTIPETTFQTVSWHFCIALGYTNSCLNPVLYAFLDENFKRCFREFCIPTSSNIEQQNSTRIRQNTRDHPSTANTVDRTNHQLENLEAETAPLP
The target in experiment [2] is T2, Kappa-type opioid receptor (Homo sapiens, UniProt P41145). Briefly: SAR analysis of Antagonists of the Kappa Opioid Receptor (KOR) using an Image-Based Assay - Set 2. [Related pubchem assays (depositor defined):AID1777, AID1785, AID1786, AID1966, AID2133, AID2136, AID2284, AID2285, AID2348]. The class given is functional.
T2 sequence (P41145 whole entry): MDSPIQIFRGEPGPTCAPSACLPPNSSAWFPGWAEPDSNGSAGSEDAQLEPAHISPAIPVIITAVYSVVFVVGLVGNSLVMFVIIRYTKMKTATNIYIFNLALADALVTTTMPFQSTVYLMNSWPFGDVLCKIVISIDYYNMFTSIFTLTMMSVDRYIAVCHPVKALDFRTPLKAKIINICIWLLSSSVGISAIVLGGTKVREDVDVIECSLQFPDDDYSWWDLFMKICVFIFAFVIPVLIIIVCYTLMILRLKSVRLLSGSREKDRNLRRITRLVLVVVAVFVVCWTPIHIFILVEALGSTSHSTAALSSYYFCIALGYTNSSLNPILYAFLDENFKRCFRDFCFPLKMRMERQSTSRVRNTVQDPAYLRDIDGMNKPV
Experiment [3] has as its target T1, Mu-type opioid receptor. Briefly: SAR Analysis of Agonists of the MOR Receptor using an Image-Based Assay - Set 2. [Related pubchem assays (depositor defined):AID1777, AID1785, AID1786, AID1966, AID2133, AID2136, AID2284, AID2285, AID2352]. It is filed as functional.
Experiment [4] addresses T2, Kappa-type opioid receptor. Briefly: SAR analysis of small molecule agonists of the kappa opioid receptor via a luminescent beta-arrestin assay - Set 2. [Related pubchem assays (depositor defined):AID1777, AID1785, AID1786, AID1966, AID2133, AID2136, AID2284, AID449737]. The class given is functional.
Experiment [5] concerns the target T3, Delta-type opioid receptor (Homo sapiens, UniProt P41143). Briefly: SAR Analysis of Agonists of the DOR Receptor using an Image-Based Assay - Set 2. [Related pubchem assays (depositor defined):AID1777, AID1785, AID1786, AID1966, AID2133, AID2136, AID2284, AID2285, AID2370]. The class given is functional.
Experiment [6] addresses T3, Delta-type opioid receptor. Nature of the experiment: SAR Analysis of Antagonists of the DOR Receptor using an Image-Based Assay - Set 2. [Related pubchem assays (depositor defined):AID1777, AID1785, AID1786, AID1966, AID2133, AID2136, AID2284, AID2285, AID2357]. It is filed as functional.
The target of experiment [7] is T2, Kappa-type opioid receptor. Nature of the experiment: SAR analysis of Agonists of the Kappa Opioid Receptor (KOR) using an Image-Based Assay - Set 2. [Related pubchem assays (depositor defined):AID1777, AID1786, AID1966, AID2133, AID2136, AID2284, AID2285, AID2359]. It is filed as functional.
The target in experiment [8] is T4, Nucleotide-binding oligomerization domain-containing protein 1 (Homo sapiens, UniProt Q9Y239).
T4 sequence (Q9Y239 whole entry): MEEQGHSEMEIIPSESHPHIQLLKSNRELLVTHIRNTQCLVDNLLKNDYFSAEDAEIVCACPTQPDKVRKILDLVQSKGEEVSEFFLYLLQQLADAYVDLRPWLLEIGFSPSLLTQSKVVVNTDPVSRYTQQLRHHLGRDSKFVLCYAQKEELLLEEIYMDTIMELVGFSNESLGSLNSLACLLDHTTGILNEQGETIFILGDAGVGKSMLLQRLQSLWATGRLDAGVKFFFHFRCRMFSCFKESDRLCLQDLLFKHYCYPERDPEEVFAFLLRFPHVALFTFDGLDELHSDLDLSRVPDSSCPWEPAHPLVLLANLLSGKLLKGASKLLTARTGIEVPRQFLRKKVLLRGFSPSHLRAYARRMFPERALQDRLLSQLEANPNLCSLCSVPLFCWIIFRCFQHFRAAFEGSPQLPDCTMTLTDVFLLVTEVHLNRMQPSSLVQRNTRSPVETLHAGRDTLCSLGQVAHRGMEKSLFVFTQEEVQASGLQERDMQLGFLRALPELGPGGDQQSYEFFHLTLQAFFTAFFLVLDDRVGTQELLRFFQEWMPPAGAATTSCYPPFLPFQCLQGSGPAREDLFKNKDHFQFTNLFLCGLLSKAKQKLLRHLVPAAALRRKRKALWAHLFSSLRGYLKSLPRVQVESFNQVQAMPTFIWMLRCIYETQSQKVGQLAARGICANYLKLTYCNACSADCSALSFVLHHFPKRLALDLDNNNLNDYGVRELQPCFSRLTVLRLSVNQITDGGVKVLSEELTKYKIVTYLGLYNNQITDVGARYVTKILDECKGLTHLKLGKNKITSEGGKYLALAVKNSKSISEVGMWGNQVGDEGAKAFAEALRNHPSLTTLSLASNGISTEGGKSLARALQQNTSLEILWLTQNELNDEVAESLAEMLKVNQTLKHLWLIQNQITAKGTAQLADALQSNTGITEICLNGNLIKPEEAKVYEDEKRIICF
Briefly: SAR analysis of NF-kappaB dependent luciferase using DAP as an inducer - Set 2. [Related pubchem assays (depositor defined):AID1566, AID1575, AID1578, AID1579, AID1849, AID1852, AID2264]. The class given is functional.

Experiment [9] deals with Streptococcus sp. 'group A'. Nature of the experiment: growth inhibition of control SK(-) GAS strain, dose response, counter-screen for streptokinase expression inhibitor project, luminescence, kanamycin, BacTiterGlo, confirmation (AID 1900). It is filed as functional, organism-based. For orientation: Counterscreens check selectivity or assay interference.
The next experiment addresses T5, Streptokinase A (Streptococcus pyogenes serotype M1, UniProt P10520).
T5 sequence (P10520 whole entry): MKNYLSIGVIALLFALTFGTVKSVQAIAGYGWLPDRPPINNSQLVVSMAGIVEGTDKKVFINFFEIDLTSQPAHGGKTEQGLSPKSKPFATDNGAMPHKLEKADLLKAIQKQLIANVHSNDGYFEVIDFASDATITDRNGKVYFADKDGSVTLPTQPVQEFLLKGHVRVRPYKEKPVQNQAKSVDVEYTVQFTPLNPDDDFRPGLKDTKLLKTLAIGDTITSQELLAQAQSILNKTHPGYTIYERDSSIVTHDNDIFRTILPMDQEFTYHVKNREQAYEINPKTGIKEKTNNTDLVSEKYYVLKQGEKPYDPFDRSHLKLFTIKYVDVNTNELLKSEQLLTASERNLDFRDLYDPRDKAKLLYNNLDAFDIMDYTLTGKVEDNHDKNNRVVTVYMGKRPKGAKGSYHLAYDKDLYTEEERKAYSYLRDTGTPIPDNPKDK
Briefly: S. pyogenes streptokinase expression inhibitors, potency, dose response, plasminogen activation absorbance, OD405 (AID 1914).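 Note: secreted streptokinase activity via plasminogen activation per viability signal from cell pellet.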 The class given is functional, Streptococcus pyogenes M1 GAS.

Experiment [10] addresses T6, Interleukin-8 (Homo sapiens, UniProt P10145).
T6 sequence (P10145 whole entry): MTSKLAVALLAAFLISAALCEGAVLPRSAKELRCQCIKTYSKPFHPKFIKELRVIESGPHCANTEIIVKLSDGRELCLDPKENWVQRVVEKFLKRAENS
Briefly: SAR analysis of Tumor necrosis factor alpha (TNF-alpha) induced IL-8 secretion in MCF-7/NOD1 cells - Set 2. [Related pubchem assays (depositor defined):AID1575, AID2250, AID2260]. The class given is functional, cell-based.

The target of experiment [11] is T6, Interleukin-8. Nature of the experiment: SAR analysis of GM-Tri-DAP induced IL-8 secretion in MCF-7/NOD1 cells - Set 2. [Related pubchem assays (depositor defined):AID1575, AID1578, AID2333]. It is filed as functional, cell-based.
The test system of a further experiment is Streptococcus. Nature of the experiment: Group A Streptococcus viability loss, dose response, counter-screen for streptokinase expression inhibitor project, luminescence, BacTiterGlo (AID 1915).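 Note: potency for reduction of bacterial viability or growth.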 It is filed as functional, organism-based.
For experiment [12], the target named is T7, Nucleotide-binding oligomerization domain-containing protein 2 (Homo sapiens, UniProt Q9HC29). Briefly: NOD2 inhibitors, SAR follow-up, set 2 (AID 2475). The class given is functional.
T7 sequence (Q9HC29 whole entry, the tested form may be a part): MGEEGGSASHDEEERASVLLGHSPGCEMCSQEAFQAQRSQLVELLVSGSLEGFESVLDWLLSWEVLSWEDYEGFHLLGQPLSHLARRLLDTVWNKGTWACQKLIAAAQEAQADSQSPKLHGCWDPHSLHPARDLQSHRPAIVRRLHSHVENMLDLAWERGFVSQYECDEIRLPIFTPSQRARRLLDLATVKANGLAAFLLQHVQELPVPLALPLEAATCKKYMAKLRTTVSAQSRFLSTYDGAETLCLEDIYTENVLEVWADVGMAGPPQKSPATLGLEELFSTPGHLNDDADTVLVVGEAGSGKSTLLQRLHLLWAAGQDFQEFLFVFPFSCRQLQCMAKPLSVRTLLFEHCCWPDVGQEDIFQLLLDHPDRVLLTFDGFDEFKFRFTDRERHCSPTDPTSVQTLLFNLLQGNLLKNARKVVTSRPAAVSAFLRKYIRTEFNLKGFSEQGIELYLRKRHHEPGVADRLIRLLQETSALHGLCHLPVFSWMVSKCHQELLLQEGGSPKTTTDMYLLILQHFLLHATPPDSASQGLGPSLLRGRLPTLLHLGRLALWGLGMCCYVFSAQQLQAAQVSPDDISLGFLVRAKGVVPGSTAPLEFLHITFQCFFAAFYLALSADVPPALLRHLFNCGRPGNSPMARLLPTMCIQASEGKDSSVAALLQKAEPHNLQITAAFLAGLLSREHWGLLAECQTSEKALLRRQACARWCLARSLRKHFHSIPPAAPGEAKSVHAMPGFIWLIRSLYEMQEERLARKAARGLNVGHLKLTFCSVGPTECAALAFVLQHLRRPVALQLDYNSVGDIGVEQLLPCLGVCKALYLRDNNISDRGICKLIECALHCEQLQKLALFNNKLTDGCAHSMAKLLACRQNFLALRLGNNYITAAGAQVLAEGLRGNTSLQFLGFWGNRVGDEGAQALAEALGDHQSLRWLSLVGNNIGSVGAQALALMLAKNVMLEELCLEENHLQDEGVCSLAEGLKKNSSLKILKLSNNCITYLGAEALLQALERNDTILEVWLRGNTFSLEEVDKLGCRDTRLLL
In experiment [13] the test system is HEK293. Briefly: SAR analysis of compounds that are cytotoxic to HEK293 - Set 2. [Related pubchem assays (depositor defined):AID1575, AID1578, AID1849, AID2001, AID2333, AID2334, AID2335, AID2337, AID2800]. It is filed as functional, cell-based. The following applies: Homo sapiens.
In experiment [14] the target is T4, Nucleotide-binding oligomerization domain-containing protein 1. Nature of the experiment: SAR analysis of compounds that inhibit NOD1 - Set 2. [Related pubchem assays (depositor defined):AID1566, AID1575, AID1578, AID1849, AID1852, AID2333, AID2335, AID2798]. The class given is functional.
The target is the same in experiment [15]. Nature of the experiment: SAR analysis of compounds that inhibit NOD1 - Set 3. [Related pubchem assays (depositor defined):AID1566, AID1575, AID1578, AID1849, AID1852, AID2333, AID2335, AID2466]. It is filed as functional.
Another experiment has as its target Tumor necrosis factor (Homo sapiens, UniProt P01375). Briefly: TNFa-triggered NF-kB activation inhibitors, SAR follow-up, cell-based, set 3 (AID 2801). It is filed as functional.
The test system of experiment [16] is HEK293. Briefly: SAR analysis of compounds that are cytotoxic to HEK293 - Set 3. [Related pubchem assays (depositor defined):AID1575, AID1578, AID1848, AID1849, AID2001, AID2333, AID2334, AID2335, AID2337, AID2469]. The class given is functional, cell-based. The following applies: Homo sapiens.
In experiment [17] the target is T7, Nucleotide-binding oligomerization domain-containing protein 2. Briefly: NOD2 signaling inhibitors, analog potency, SAR follow-up, cell-based, set 3 (AID 2799). It is filed as functional.
Experiment [18] has as its target T8, Dual specificity protein phosphatase 3 (Homo sapiens, UniProt P51452). Briefly: VHR1 phosphatase inhibitors, primary screen, biochemical, absorbance, uHTS (AID 1654).
The target in experiment [19] is T8, Dual specificity protein phosphatase 3. Briefly: VHR1 phosphatase inhibitors, biochemical (AID 1878).
The target of experiment [20] is Dual specificity protein phosphatase 6 (Rattus norvegicus, UniProt Q64346). Briefly: MKP-3 phosphatase inhibitors, primary screen, biochemical, rat enzyme, in vitro (AID 425).
Dual specificity protein phosphatase 6, sequence (Q64346 whole entry): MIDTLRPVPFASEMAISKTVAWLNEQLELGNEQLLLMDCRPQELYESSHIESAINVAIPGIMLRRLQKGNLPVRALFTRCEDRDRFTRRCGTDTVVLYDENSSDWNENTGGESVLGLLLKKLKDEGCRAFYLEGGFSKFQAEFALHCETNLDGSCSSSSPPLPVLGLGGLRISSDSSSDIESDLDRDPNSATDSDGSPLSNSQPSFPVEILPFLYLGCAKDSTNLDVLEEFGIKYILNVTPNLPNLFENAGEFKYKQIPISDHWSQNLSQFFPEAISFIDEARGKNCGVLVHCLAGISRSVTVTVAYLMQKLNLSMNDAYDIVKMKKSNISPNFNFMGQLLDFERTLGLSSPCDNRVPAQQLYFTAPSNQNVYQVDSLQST
The target in another experiment is Cytochrome P450 2C9 (Homo sapiens, UniProt P11712).
Cytochrome P450 2C9, sequence (P11712 whole entry): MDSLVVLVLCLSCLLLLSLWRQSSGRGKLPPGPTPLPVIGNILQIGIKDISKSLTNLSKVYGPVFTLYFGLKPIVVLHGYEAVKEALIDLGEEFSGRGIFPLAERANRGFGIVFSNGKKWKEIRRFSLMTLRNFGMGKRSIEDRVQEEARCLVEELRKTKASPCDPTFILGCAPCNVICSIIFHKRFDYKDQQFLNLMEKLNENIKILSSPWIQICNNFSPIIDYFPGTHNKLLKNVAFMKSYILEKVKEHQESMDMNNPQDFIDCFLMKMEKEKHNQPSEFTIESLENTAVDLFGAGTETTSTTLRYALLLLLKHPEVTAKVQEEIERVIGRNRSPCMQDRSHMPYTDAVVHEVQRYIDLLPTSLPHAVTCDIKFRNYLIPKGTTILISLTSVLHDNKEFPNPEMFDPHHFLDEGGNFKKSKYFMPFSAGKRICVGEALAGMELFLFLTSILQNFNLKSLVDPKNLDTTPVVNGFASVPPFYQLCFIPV

T3 sequence (P41143 whole entry): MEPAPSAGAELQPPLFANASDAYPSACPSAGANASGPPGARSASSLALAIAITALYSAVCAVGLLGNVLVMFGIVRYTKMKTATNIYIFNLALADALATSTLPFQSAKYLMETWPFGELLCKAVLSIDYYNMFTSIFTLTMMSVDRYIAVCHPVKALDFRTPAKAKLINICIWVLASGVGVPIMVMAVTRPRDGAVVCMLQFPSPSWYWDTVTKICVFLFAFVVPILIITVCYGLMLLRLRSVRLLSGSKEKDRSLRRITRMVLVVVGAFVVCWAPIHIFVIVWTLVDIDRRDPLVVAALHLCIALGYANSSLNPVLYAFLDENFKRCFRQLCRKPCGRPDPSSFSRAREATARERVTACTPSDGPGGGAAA
T8 sequence (P51452 whole entry): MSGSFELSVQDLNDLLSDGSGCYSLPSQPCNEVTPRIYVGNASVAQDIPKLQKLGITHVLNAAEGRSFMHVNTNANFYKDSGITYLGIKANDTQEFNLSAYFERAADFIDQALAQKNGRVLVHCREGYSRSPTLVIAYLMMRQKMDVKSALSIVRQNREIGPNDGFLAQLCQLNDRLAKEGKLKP
Tumor necrosis factor, sequence (P01375 whole entry): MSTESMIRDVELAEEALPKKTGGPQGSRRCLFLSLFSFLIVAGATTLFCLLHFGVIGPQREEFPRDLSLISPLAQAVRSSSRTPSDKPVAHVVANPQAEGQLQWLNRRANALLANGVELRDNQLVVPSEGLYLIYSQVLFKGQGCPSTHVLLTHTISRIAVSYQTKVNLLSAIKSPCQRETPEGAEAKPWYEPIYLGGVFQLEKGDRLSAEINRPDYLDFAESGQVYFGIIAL

As for `c1ccc(CSc2nnc(-c3ccccn3)n2Cc2cccs2)cc1`, the IC50 (at Mu-type opioid receptor [1]; in experiment [2]; in experiment [6]) was > 32 µM (inactive) throughout. In addition, the EC50 on Mu-type opioid receptor [3] is > 32 µM (inactive); in [4], 13.9 µM (inactive); in [5] it was > 32 µM (inactive); in [7], 23.5 µM (inactive).
For the molecule `CCCCn1c(SCC(=O)c2ccccc2)nc2c1c(=O)[nH]c(=O)n2C`, the IC50 in experiment [8] is > 25 µM (inactive); on Interleukin-8 [10], > 25 µM (inactive); at Interleukin-8 [11], > 25 µM (inactive); in experiment [12] it was > 20 µM (inactive); with HEK293 [13], > 20 µM (inactive); in [14] it was > 20 µM (inactive). In addition, the IC50 (in [15]; on Tumor necrosis factor; in the experiment with HEK293 [16]; in [17]) was > 20 µM (inactive) in each case. For the same molecule, the EC50 is 3.37 µM (active) in experiment [9], > 150 µM (not active) on Streptokinase A and 18.4 µM (active) in the experiment on Streptococcus.
Consider `CCC(=S)/C=C1\Sc2ccccc2N1CCCS(=O)(=O)O`, for which the 50% inhibitory concentration (IC50) is 4.33 µM (active) in experiment [18], 8.29 µM (active) in experiment [19] and > 158 µM (not active) in [20]. In addition, the concentration at half-maximal activity (AC50) at Cytochrome P450 2C9 is 22.4 µM (inconclusive).
